Reference: ChEMBL document CHEMBL5230109, “Recent advances in epigenetic proteolysis targeting chimeras (Epi-PROTACs)” (Eur J Med Chem, 2020)

Assays:
Polycomb protein EED [1] = target: T1, Polycomb protein EED (Homo sapiens, UniProt O75530); test: Binding affinity to PRC2 catalytic core EED (unknown origin) by surface plasmon resonance assay
[2] = Inhibition of PRC2 catalytic core MTase activity (unknown origin) by MTase Glo assay; design: species or system Homo sapiens
KARPAS-422 = test: Antiproliferative activity against human KARPAS-422 cells assessed as growth inhibition after 14 days by Cell Titer-Glo luminescent assay; assay type: functional; conditions: KARPAS-422, 336 h, time 14 day
[3] = target: T2, Bromodomain-containing protein 2 (Homo sapiens, UniProt P25440); test: Binding affinity to BRD2 BD1 domain (unknown origin)
T2 sequence (P25440 whole entry, the tested form may be a part): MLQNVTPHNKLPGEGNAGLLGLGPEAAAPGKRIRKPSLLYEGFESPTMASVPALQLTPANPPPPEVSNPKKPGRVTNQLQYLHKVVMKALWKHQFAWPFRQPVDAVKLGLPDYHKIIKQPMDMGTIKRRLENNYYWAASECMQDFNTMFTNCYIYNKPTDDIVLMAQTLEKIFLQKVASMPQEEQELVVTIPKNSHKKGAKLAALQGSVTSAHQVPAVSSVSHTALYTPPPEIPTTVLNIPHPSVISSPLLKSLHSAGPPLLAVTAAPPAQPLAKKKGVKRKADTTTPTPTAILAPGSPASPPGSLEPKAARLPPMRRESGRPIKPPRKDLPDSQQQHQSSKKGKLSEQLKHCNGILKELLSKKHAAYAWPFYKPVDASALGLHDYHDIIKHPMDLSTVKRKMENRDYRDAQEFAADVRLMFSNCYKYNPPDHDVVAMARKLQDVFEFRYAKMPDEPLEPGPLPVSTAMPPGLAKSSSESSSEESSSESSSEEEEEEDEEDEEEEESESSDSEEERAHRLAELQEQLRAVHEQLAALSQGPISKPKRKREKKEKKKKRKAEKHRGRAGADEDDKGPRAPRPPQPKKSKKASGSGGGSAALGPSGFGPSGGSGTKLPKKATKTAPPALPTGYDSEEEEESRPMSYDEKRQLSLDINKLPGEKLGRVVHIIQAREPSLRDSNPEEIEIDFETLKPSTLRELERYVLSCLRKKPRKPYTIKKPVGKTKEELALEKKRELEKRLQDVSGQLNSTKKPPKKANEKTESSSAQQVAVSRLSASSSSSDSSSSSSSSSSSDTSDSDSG

[4] = target: T2, Bromodomain-containing protein 2; test: Binding affinity to BRD2 BD2 domain (unknown origin)
[5] = target: T3, Bromodomain-containing protein 3 (Homo sapiens, UniProt Q15059); test: Binding affinity to BRD3 BD1 domain (unknown origin)
T3 sequence (Q15059 whole entry, the tested form may be a part): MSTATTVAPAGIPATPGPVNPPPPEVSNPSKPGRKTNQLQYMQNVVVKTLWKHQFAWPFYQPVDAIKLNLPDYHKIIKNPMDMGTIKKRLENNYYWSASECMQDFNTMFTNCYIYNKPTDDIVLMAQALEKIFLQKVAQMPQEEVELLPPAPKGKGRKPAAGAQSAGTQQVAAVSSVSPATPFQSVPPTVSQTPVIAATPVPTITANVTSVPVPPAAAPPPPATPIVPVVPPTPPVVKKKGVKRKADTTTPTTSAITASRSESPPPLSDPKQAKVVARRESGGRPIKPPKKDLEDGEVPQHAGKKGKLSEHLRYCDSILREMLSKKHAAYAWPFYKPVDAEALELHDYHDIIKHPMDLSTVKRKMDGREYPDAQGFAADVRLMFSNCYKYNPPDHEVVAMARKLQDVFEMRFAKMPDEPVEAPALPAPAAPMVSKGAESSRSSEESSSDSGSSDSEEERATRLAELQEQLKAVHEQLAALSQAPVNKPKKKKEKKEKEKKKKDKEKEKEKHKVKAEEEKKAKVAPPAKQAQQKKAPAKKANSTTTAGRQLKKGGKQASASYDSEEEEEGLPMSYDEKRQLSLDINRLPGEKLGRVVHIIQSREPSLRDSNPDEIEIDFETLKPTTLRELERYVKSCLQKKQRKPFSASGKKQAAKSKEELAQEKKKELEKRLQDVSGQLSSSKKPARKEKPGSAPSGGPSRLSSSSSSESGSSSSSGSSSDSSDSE

[6] = target: T3, Bromodomain-containing protein 3; test: Binding affinity to BRD3 BD2 domain (unknown origin)
[7] = target: T4, Bromodomain-containing protein 4 (Homo sapiens, UniProt O60885); test: Binding affinity to BRD4 BD1 domain (unknown origin)
[8] = target: T4, Bromodomain-containing protein 4; test: Binding affinity to BRD4 BD2 domain (unknown origin)
[9] = target: T5, Protein cereblon/Protein deacetylase HDAC6 (Homo sapiens, UniProt Q96SW2+Q9UBN7); test: PROTAC activity at HDAC6/CRBN in human MM.1S cells measured after 24 hrs; assay type: cell-based, MM1.S
[10] = target: T6, von Hippel-Lindau disease tumor suppressor/Transcription intermediary factor 1-alpha (Homo sapiens, UniProt O15164+P40337); test: PROTAC activity at TRIM24/VHL (unknown origin) assessed as degradation protein; assay type: protein assay
[11] = target: T7, von Hippel-Lindau disease tumor suppressor/SWI/SNF-related matrix-associated actin-dependent regulator of chromatin subfamily A member 2 (Homo sapiens, UniProt P40337+P51531); test: PROTAC activity at SMARCA2/VHL in human MV4-11 cells assessed as degradation protein measured after 18 hrs; assay type: cell-based
T7 sequence (P51531 whole entry): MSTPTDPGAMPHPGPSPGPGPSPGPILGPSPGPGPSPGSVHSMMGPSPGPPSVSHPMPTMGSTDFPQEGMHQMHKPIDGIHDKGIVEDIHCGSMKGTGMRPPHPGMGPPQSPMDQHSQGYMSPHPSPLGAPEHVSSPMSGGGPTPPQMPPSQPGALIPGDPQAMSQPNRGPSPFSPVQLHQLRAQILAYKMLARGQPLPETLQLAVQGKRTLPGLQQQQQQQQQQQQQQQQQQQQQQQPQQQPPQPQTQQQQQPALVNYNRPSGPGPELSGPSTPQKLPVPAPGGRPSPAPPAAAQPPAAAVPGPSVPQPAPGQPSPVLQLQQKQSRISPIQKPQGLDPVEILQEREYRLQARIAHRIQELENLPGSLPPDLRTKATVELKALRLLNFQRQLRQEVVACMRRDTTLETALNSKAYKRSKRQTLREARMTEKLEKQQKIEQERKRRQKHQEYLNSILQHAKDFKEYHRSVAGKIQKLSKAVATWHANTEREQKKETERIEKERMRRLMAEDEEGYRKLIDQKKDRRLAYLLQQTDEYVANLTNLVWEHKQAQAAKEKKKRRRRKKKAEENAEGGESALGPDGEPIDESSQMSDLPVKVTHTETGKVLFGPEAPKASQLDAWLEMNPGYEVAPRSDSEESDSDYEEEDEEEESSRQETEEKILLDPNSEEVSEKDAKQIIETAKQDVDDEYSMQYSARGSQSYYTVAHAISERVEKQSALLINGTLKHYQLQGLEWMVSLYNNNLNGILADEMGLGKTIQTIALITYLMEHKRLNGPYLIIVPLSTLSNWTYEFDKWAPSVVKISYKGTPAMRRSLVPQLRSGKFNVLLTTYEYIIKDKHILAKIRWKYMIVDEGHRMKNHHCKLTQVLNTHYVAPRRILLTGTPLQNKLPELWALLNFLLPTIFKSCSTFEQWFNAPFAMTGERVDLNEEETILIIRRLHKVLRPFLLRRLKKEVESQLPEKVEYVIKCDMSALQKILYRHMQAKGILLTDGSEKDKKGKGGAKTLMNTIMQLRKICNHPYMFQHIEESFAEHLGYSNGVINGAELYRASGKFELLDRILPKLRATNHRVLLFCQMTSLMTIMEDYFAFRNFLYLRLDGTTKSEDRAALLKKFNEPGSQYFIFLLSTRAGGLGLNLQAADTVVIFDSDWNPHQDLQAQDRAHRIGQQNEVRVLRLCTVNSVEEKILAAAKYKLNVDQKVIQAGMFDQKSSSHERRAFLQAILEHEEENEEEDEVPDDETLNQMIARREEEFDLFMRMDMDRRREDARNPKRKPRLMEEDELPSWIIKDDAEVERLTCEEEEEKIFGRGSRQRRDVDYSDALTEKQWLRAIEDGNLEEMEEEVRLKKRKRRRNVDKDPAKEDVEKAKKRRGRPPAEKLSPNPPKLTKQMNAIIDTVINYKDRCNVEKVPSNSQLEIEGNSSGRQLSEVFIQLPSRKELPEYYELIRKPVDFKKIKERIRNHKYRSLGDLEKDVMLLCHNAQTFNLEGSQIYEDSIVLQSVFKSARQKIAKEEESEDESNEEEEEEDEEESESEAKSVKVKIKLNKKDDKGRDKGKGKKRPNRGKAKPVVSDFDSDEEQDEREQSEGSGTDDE
T7 sequence (P40337 whole entry): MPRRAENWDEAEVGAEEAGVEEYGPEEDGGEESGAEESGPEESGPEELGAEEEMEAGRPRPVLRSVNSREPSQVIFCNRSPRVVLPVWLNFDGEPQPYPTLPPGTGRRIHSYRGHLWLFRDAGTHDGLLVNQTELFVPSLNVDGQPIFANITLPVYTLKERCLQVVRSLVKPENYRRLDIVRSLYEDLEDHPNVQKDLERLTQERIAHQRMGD

[12] = target: von Hippel-Lindau disease tumor suppressor/SWI/SNF-related matrix-associated actin-dependent regulator of chromatin subfamily A member 4 (Homo sapiens, UniProt P40337+P51532); test: PROTAC activity at SMARCA4/VHL in human MV4-11 cells assessed as degradation protein measured after 18 hrs; assay type: cell-based
[13] = target: T8, Protein polybromo-1/von Hippel-Lindau disease tumor suppressor (Homo sapiens, UniProt P40337+Q86U86); test: PROTAC activity at PBRM1/VHL in human MV4-11 cells assessed as degradation protein measured after 18 hrs; assay type: cell-based
[14] = target: T7, von Hippel-Lindau disease tumor suppressor/SWI/SNF-related matrix-associated actin-dependent regulator of chromatin subfamily A member 2; test: PROTAC activity at SMARCA2/VHL in human NCI-H1568 cells assessed as degradation protein measured after 18 hrs; assay type: cell-based
[15] = target: T8, Protein polybromo-1/von Hippel-Lindau disease tumor suppressor; test: PROTAC activity at PBRM1/VHL in human NCI-H1568 cells assessed as degradation protein measured after 18 hrs; assay type: cell-based
[16] = target: SWI/SNF-related matrix-associated actin-dependent regulator of chromatin subfamily A member 2 (Homo sapiens, UniProt P51531); test: Inhibition of SMARCA2 BD (unknown origin)
[17] = target: SWI/SNF-related matrix-associated actin-dependent regulator of chromatin subfamily A member 4 (Homo sapiens, UniProt P51532); test: Inhibition of SMARCA4 BD (unknown origin)
[18] = Inhibition of […] BD5 (unknown origin); design: species or system Homo sapiens
MV4-11 = test: Antiproliferative activity against human MV4-11 cells measured after 7 days; assay type: functional, cell-based; conditions: MV4-11, 168 h
SK-MEL-5 = test: Antiproliferative activity against human SK-MEL-5 cells measured after 7 days; assay type: functional, cell-based; conditions: SK-MEL-5, 168 h
[19] = Antiproliferative activity against human NCI-H1568 cells measured after 7 days; assay type: functional, cell-based; conditions: NCI-H1568, 168 h
[20] = target: von Hippel-Lindau disease tumor suppressor/Bromodomain-containing protein 2 (Homo sapiens, UniProt P25440+P40337); test: PROTAC activity at BRD2/VHL in human 22Rv1 cells assessed as protein degradation measured after 16 hrs; assay type: cell-based
Histone deacetylase 1 = Histone deacetylase 1 (Homo sapiens, UniProt Q13547); test: Inhibition of human recombinant GST-tagged HDAC1 incubated for 20 mins by HDAC Glo assay
Histone deacetylase 2 = Histone deacetylase 2 (Homo sapiens, UniProt Q92769); test: Inhibition of human recombinant GST-tagged HDAC2 incubated for 20 mins by HDAC Glo assay
Sequence of Histone deacetylase 2 (Q92769 whole entry): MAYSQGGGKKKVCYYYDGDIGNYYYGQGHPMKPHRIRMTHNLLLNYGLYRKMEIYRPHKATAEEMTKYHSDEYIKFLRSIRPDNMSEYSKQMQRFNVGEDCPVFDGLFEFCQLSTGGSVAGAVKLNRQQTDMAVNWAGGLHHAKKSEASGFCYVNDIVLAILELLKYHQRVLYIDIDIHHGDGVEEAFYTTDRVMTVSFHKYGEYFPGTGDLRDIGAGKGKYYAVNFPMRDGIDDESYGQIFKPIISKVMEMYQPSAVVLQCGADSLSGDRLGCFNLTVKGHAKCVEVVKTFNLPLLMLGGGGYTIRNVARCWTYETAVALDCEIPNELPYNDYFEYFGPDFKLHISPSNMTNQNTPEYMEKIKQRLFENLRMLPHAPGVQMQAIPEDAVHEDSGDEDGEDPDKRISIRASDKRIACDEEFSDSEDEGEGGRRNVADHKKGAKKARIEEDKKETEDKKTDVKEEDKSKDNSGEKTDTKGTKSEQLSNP

Histone deacetylase 3 = Histone deacetylase 3 (Homo sapiens, UniProt O15379); test: Inhibition of human recombinant HDAC3 incubated for 20 mins by HDAC Glo assay
[21] = target: Protein deacetylase HDAC6 (Homo sapiens, UniProt Q9UBN7); test: Inhibition of human recombinant GST-tagged HDAC6 incubated for 20 mins by HDAC Glo assay
Histone deacetylase 8 = Histone deacetylase 8 (Homo sapiens, UniProt Q9BY41); test: Inhibition of human recombinant His-tagged HDAC8 incubated for 20 mins by HDAC Glo assay
[22] = target: Polyamine deacetylase HDAC10 (Homo sapiens, UniProt Q969S8); test: Inhibition of human recombinant His-tagged HDAC10 incubated for 20 mins by HDAC Glo assay
[23] = target: Histone-lysine N-methyltransferase EZH1 (Homo sapiens, UniProt Q92800); test: Inhibition of EZH1 methyltransferase activity (unknown origin) assessed `transfer of [3H]methyl group from SAM to substrate by biochemical assay
[24] = target: T5, Protein cereblon/Protein deacetylase HDAC6; test: PROTAC activity at HDAC6/CRBN in human MM.1S cells; assay type: cell-based, MM1.S
MM1.S = test: Growth inhibition of human MM1.S cells; assay type: functional
[25] = target: von Hippel-Lindau disease tumor suppressor/Polycomb protein EED (Homo sapiens, UniProt O75530+P40337); test: PROTAC activity at PRC2 catalytic core EED/VHL (unknown origin) measured after 24 hrs by Western blot analysis; assay type: protein assay
[26] = target: von Hippel-Lindau disease tumor suppressor/Histone-lysine N-methyltransferase EZH2 (Homo sapiens, UniProt P40337+Q15910, Y641N); test: PROTAC activity at PRC2 catalytic core EZH2/EZH2 Y641N mutant/VHL (unknown origin) measured after 24 hrs by Western blot analysis
[27] = target: von Hippel-Lindau disease tumor suppressor/Polycomb protein SUZ12 (Homo sapiens, UniProt P40337+Q15022); test: PROTAC activity at PRC2 catalytic core SUZ12/VHL in human DLBCL cells measured after 24 hrs by Western blot analysis; assay type: cell-based
Polycomb protein EED [28] = target: T1, Polycomb protein EED; test: Inhibition of PRC2 catalytic core EED (unknown origin)
[29] = target: Histone-lysine N-methyltransferase EZH2 (Homo sapiens, UniProt Q15910); test: Inhibition of EZH2 methyltransferase activity (unknown origin) assessed `transfer of [3H]methyl group from SAM to substrate by biochemical assay
Sequence of Histone-lysine N-methyltransferase EZH2 (Q15910 whole entry): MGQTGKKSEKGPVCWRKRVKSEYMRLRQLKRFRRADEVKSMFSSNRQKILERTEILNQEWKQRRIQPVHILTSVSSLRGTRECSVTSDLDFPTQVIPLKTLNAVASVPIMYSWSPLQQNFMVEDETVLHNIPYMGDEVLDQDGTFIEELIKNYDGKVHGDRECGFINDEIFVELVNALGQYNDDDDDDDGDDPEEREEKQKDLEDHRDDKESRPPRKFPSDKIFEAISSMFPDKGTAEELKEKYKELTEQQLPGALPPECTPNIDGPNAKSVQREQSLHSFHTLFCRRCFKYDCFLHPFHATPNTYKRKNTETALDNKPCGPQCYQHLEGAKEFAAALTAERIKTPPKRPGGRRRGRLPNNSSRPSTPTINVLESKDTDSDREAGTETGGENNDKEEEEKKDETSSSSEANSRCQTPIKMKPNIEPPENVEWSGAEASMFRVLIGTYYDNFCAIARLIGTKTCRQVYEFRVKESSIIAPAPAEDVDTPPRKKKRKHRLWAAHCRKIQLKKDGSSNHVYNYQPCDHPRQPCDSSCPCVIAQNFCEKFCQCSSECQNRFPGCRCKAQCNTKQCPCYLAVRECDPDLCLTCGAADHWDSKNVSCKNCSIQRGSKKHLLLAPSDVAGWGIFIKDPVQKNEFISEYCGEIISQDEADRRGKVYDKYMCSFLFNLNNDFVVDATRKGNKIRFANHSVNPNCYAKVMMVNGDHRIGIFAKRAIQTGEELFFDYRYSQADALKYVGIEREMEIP

[30] = target: T6, von Hippel-Lindau disease tumor suppressor/Transcription intermediary factor 1-alpha; test: PROTAC activity at TRIM24/VHL in human HEK293FT cells assessed as degradation protein at 5 uM measured after 24 hrs; assay type: cell-based
[31] = target: T6, von Hippel-Lindau disease tumor suppressor/Transcription intermediary factor 1-alpha; test: PROTAC activity at TRIM24/VHL in human MOLM-13 cells assessed as degradation protein at 5 uM measured after 24 hrs; assay type: cell-based

T1 sequence (O75530 whole entry): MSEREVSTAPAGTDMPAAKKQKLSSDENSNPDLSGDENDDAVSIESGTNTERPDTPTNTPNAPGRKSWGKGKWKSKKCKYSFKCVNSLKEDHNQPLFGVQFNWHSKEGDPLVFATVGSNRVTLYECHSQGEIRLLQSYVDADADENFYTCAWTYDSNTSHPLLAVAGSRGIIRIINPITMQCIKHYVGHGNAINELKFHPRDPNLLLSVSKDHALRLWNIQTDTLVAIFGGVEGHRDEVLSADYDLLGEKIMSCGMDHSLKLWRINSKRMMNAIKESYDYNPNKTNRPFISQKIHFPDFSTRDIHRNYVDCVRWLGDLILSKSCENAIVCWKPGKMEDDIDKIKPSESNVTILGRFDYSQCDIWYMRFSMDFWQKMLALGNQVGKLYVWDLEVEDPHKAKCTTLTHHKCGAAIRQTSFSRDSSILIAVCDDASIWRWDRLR

CNC(=O)CCc1ccc(-c2cnc(NCc3c(F)ccc4c3CCO4)n3cnnc23)c(C)n1
Kd (Polycomb protein EED [1]): 0.245 nM
pIC50 [2]: 8.43

Cc1nc(CCC(=O)NCCOc2ccc(OCC(=O)N[C@@H](C(=O)N3C[C@H](O)C[C@H]3C(=O)NCc3ccc(-c4scnc4C)cc3)C(C)(C)C)cc2)ccc1-c1cnc(NCc2c(F)ccc3c2CCO3)n2cnnc12
Kd (Polycomb protein EED [1]): 0.955 nM
pIC50 [2]: 8.17
GI50 (KARPAS-422): 45 nM

CC(=O)N[C@H](C(=O)N1C[C@H](O)C[C@H]1C(=O)NCc1ccc(-c2scnc2C)cc1)C(C)(C)SCCCCCNC(=O)C[C@@H]1N=C(c2ccc(Cl)cc2)c2c(sc(C)c2C)-n2c(C)nnc21
Kd [3]: 111 nM
Kd [4]: 94 nM
Kd [5]: 35 nM
Kd [6]: 39 nM
Kd [7]: 75 nM
Kd [8]: 44 nM

CCCCN(Cc1ccc(C(=O)NO)cc1)C(=O)Nc1ccc(NC(=O)CCCc2cn(CCOCCNc3cccc4c3C(=O)N(C3CCC(=O)NC3=O)C4=O)nn2)cc1 (stereo unspecified)
EC50 [9]: 3.2 nM

CCCOc1cccc(Oc2cc3c(cc2NS(=O)(=O)c2ccc(OC)c(OC)c2)n(C)c(=O)n3C)c1
IC50 [10]: 43 nM

Cc1ncsc1-c1ccc(CNC(=O)[C@H]2C[C@H](O)CN2C(=O)[C@H](NC(=O)C2(F)CC2)C(C)(C)C)c(OCCOc2ccc(CN3CCN(c4cc(-c5ccccc5O)nnc4N)CC3)cc2)c1
EC50 [11]: 6 nM
EC50 [12]: 11 nM
EC50 [13]: 32 nM
EC50 [14]: 3.3 nM
EC50 [15]: 15.6 nM
IC50 [16]: 770 nM
IC50 [17]: 560 nM
IC50 [18]: 504 nM
IC50 (MV4-11): 28 nM
IC50 (SK-MEL-5): 77 nM
IC50 [19]: 68 nM

Cc1nc(CCC(=O)NCCCCC(=O)N[C@@H](C(=O)N2C[C@H](O)C[C@H]2C(=O)NCc2ccc(-c3scnc3C)cc2)C(C)(C)C)ccc1-c1cnc(NCc2c(F)ccc3c2CCO3)n2cnnc12
Kd (Polycomb protein EED [1]): 0.537 nM
pIC50 [2]: 8.11
GI50 (KARPAS-422): 57 nM

Cc1ncsc1-c1ccc([C@H](C)NC(=O)[C@@H]2C[C@@H](O)CN2C(=O)C(NC(=O)COCCCOCCNC(=O)C[C@@H]2N=C(c3ccc(Cl)cc3)c3c(sc(C)c3C)-n3c(C)nnc32)C(C)(C)C)cc1 (single isomer, unassigned)
Kd [3]: 34 nM
Kd [4]: 4.7 nM
EC50 [20]: < 5 nM

COc1ccc(/C=N/NC(=O)CCCCCCCC(=O)NO)cc1
IC50 (Histone deacetylase 1): 2.28 nM
IC50 (Histone deacetylase 2): 3.12 nM
IC50 (Histone deacetylase 3): 1.82 nM
IC50 [21]: 35.8 nM
IC50 (Histone deacetylase 8): 60.3 nM
IC50 [22]: 11.1 nM

Cc1cc(C)c(CNC(=O)c2cc(-c3ccc(N4CCN(C(C)C)CC4)nc3)cc3c2cnn3C(C)C)c(=O)[nH]1
IC50 [23]: > 2500 nM

O=C1CCC(N2C(=O)c3cccc(NCCOCCOCCn4cc(CCCCN(Cc5ccc(C(=O)NO)cc5)C(=O)Nc5ccccc5)nn4)c3C2=O)C(=O)N1 (stereo unspecified)
EC50 [24]: 3.8 nM
GI50 (MM1.S): 1210 nM

Cc1ncsc1-c1ccc(CNC(=O)[C@@H]2C[C@@H](O)CN2C(=O)[C@@H](NC(=O)CCCNC(=O)c2ccc(-c3cnc(NCc4ccco4)n4cnnc34)cc2)C(C)(C)C)cc1
EC50 [25]: 610 nM
EC50 [26]: 300 nM
EC50 [27]: 590 nM
IC50 (Polycomb protein EED [28]): 247 nM

Cc1cc(C)c(CNC(=O)c2cc(-c3ccc(N4CCN(CCNC(=O)CC56CC7CC(CC(C7)C5)C6)CC4)nc3)cc3c2cnn3C(C)C)c(=O)[nH]1
IC50 [29]: 120 nM

CCCOc1cccc(Oc2cc3c(cc2NS(=O)(=O)c2cccc(C(=O)NCCOCCOCCOCC(=O)N[C@H](C(=O)N4C[C@H](O)C[C@H]4C(=O)NCc4ccc(-c5scnc5C)cc4)C(C)(C)C)c2)n(C)c(=O)n3C)c1
Activity [30]: 72%
Activity [31]: 72%
